Test results taken from patent US6838236B1, “VPR function and activity” (priority 1993, dated 2005).

Tests used:
HIV-1 p24^gag antigen = test: HIV-1 p24gag antigen production, antigen-capture ELISA of culture medium; type: cell-based
[1] = tested on: human rhabdomyosarcoma cell line TE671; conditions: well-described phenomenon; cited from earlier work
OM-10.1 cells = test: Intracellular p24 fluorescence in OM-10.1 cells; type: cell-based; conditions: vpr supernatant versus control supernatant
Procedure: In other experiments, OM-10.1 cells, which are T lymphoid in origin, were treated with either control supernatant lacking vpr or vpr supernatant from baculovirus-infected cells. Cells are shown in visible light and stained for intracellular p24 detected by fluorescence microscopy. The intensity of fluorescence is a measure of the virus expression.

[2] = tested on: TE671 rhabdomyosarcoma cells; test: Biological activity of baculovirus vpr supernatant on TE671 cells; type: cell-based, human
From the text: Recombinant vpr protein can be tested for biological activity in tissue culture. Vpr and control supernatants were dialyzed against PBS and applied to TE671 rhabdomyosarcoma cells. TE671 cells differentiate and cease to proliferate when transfected with the vpr gene or infected with HIV (Gras-Masse et al., supra; Levy et al., supra). […] Cells exposed to vpr for 3 days were examined for the presence of adult muscle myosin, a differentiation marker for these cells (Aguanno et al., Cancer Res., 1990, 50, 3377).

[3] = continuous exposure to 20% vpr supernatant

Row | Molecule | increase in p24 release (HIV-1 p24^gag antigen; pNLpuroΔvpr-transfected cells exposed to phorbol ester) [fold] | p24 release (HIV-1 p24^gag antigen; undifferentiated pNLpuro-transfected cells exposed to phorbol ester) | morphology and growth of stimulated TE671 cells [1] | retrovirus expression, intracellular p24 fluorescence (OM-10.1 cells) | time to cessation of proliferation [2, 3] | time to morphological differentiation [2, 3] | effect on cell survival ([2]; exposure to greater than 20% supernatant)
1 | CCCCCCCCCCCCCC(=O)O[C@@H]1[C@@H](C)[C@@]2(O)[C@@H](C=C(CO)C[C@]3(O)C(=O)C(C)=C[C@@H]23)[C@@H]2C(C)(C)[C@]12OC(C)=O [phorbol myristate acetate] | 3 | no measurable p24 release | increase in overall size and length, are often multinucleated, and display slowed proliferation |  |  |  | 
2 | vpr protein: HIV-1 viral protein R produced in baculovirus-infected insect cells, used as supernatant or partially purified |  |  |  | induces a high level of retrovirus expression | approximately 3 days | 7-9 days | rapidly fatal
